Measurements from patent US20240239806A1, “COMPOUNDS, COMPOSITIONS AND METHODS OF TREATING DISORDERS” (Chengdu Anticancer Bioscience, Ltd., priority 2021, published 2024).
pEC50, pIC50: −log10 of the molar value. Entries after “also recorded” stand apart in the source; their conditions may differ. Read-outs that look alike come from different tables or passages of the source.

Legend:
NCI-H596 [1] = assay: MTT assay of cellular proliferation; format: cell-based; conditions: Homo sapiens, 50% inhibition of cellular proliferation
Method in brief: (§1)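 Compound dosing: 1 nM to 30 μM on subconfluent (20-30%) cultures in DMEM, 5% FBS. Readout was MTT reduction over 3-4 h, formazan at A570; EC50 derived.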

T98G [2] = assay: MTT assay of cellular proliferation; format: cell-based; conditions: Homo sapiens, 50% inhibition of cellular proliferation
Method in brief: as §1

MDA-MB-231 [3] = assay: MTT assay of cellular proliferation; format: cell-based; conditions: Homo sapiens; MDA-MB-231, MTT, 50% inhibition of cellular proliferation
Method in brief: as §1

HCT116 [4] = assay: MTT assay of cellular proliferation; format: cell-based; conditions: Homo sapiens, HCT-116, 50% inhibition of cellular proliferation
Method in brief: as §1

T2 HCC [5] = assay: MTT assay of cellular proliferation; format: cell-based; conditions: Mus musculus, 50% inhibition of cellular proliferation
Method in brief: as §1

NCI-H460 [6] = assay: MTT assay of cellular proliferation; format: cell-based; conditions: Homo sapiens, 50% inhibition of cellular proliferation
Method in brief: as §1

Hela [7] = assay: MTT assay of cellular proliferation; format: cell-based; conditions: Homo sapiens, 50% inhibition of cellular proliferation
Method in brief: as §1

NCI-H23 [8] = assay: MTT assay of cellular proliferation; format: cell-based; conditions: Homo sapiens, 50% inhibition of cellular proliferation
Method in brief: as §1

NCI-H596 [9] = assay: MECP in cancer cell line; format: cell-based; conditions: Homo sapiens
Method in brief: (§2)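 Imaging read-out (IN-Cell 2000): mitotic index at 24 h, polyploidy/DNA content at 48 h, also 72 h. Cells in DMEM/5% FBS, 37 °C, 5% CO2; compound 1 nM–30 μM. Binned A ≤1.0 μM, B ≤10.0 μM, C ≤30.0 μM, D >30.0 μM.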

T98G [10] = assay: MECP in cancer cell line; format: cell-based; conditions: Homo sapiens
Method in brief: as §2

MDA-MB-231 [11] = assay: MECP in cancer cell line; format: cell-based; conditions: Homo sapiens
Method in brief: as §2

HCT116 [12] = assay: MECP in cancer cell line; format: cell-based; conditions: Homo sapiens, HCT-116
Method in brief: as §2

T2 HCC [13] = assay: MECP in cancer cell line; format: cell-based; conditions: Mus musculus
Method in brief: as §2

NCI-H460 [14] = assay: MECP in cancer cell line; format: cell-based; conditions: Homo sapiens
Method in brief: as §2

Hela [15] = assay: MECP in cancer cell line; format: cell-based; conditions: Homo sapiens
Method in brief: as §2

RPEMYC^H2B-GFP cells = assay: Phenotypic screening assay (mitotic arrest, polyploidy); format: cell-based; conditions: 1 nM to 30 μM; for pIC50: read-out: Proliferative arrest (>50%)
Method in brief: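 RPE cells expressing MYC and H2B-EGFP treated with compound at 1 nM–30 μM; mitotic index scored at 24 h and polyploidy (DNA content) at 48 h by automated imaging, with reads at 24, 48 or 72 h. Hits show transient mitotic arrest followed by polyploid accumulation.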

NCI-H23 [16] = assay: MECP in cancer cell line; format: cell-based; conditions: Homo sapiens
Method in brief: as §2

Human Cancer Cells = assay: Anchorage-independent growth in 3D culture (FIG. 3); format: cell-based; conditions: FIG. 3 legend, cell line not named
Source text: (§3) Measuring the ability of cells to grow in soft agar has been popularly believed as the gold standard assay for cellular transformation in vitro. In the Soft Agar Assay, cells grow from single cells to cell colonies in a semi-solid agar solution that keeps them away from the solid surface and allows growth in an anchorage-independent way.
(§4) The anchorage-independent growth of cells is one of the hallmarks of cancer cells. Normal epithelial cells are supported by basement membranes that provide survival and proliferative signals while undergo a type of apoptosis called anoikis when lose their attachment to the extracellular matrix. Cancer cells, in contrast, evade detachment-induced apoptosis, leading to uncontrolled proliferation and metastasis. The Soft Agar Colony Formation Assay allows testing of the therapeutic efficacy of compounds against anchorage-independent 3D growth of cancer cells in vin. The assay was performed in 6-well plates with two layers of agar. For the first, 0.75% agar in DMEM medium was melted in a microwave oven and poured to form a bottom layer. Once solidified, 10-100K cells in 1 ml of DMEM containing 0.35% agar was added to form the top layer, which was later covered with 0.5 ml of DMEM. Cell culture medium was changed once every two days until colonies were ready to photograph. We test the antitumor activity of select compounds in soft agar colony formation assays. […] The suppression of growth of these three cancer cell lines in 3D culture is consistent with the potent impact of these compounds on cellular proliferation in 2D culture.

[17] = system: cervical cancer cell line Hela; assay: Soft agar colony formation assay; format: cell-based, human
Source text: as §3, §4

[18] = system: human lung adenocarcinoma cell line NCI-H23; assay: Xenograft assay; format: in vivo; conditions: Nu/Nu mice, 25 mg/kg oral gavage twice a day for 7 days
Procedure: (§5) Xenografts were initiated in immunocompromised (Nu/Nu) mice with the human lung adenocarcinoma cell line NCI-H23 (FIG. 4A) and the human breast cancer cell line MDA-MB-231 (FIG. 4B). Seven million cells were injected subcutaneously into each mouse and treatment was initiated when the average tumor volumes reached 150 mm3 (n=5/group). Tumor-bearing mice were randomized into different groups to receive either vehicle or indicated compounds. The compounds were administered through oral gavage twice a day for 7 days. For these experiments, all compounds were first dissolved in DMSO and then diluted 1:10 into a mixture containing 50% PEG300 and 49% PBS, 1% Tween 80, pH2.2. 100 ul of drug solution was administered with each dose to each a dose of 25 mg/kg. Tumor volumes were determined from digital caliper raw data by using the formula: Volume (mm3)=(L×W^2)/2. The value W (Width) is the smaller of two perpendicular tumor axes and the value L (Length) is the larger of two perpendicular axes. Mean tumor volumes were calculated for each treatment group at the start point (day 0) and the endpoint (day 7). The percentage change of tumor volumes, defined as (Tumor […]˜Tumor Volume^day0)/Tumor Volume^day0×100% is presented.

[19] = system: human breast cancer cell line MDA-MB-231; assay: Xenograft assay; format: in vivo; conditions: MDA-MB-231 xenograft, Nu/Nu mice, 25 mg/kg oral gavage twice a day for 7 days
Procedure: as §5

SW480 [20] = assay: MTT assay of cellular proliferation; format: cell-based; conditions: Homo sapiens, 50% inhibition of cellular proliferation
Method in brief: as §1

A549 [21] = assay: MTT assay of cellular proliferation; format: cell-based; conditions: Homo sapiens, 50% inhibition of cellular proliferation
Method in brief: as §1

NCI-N87 [22] = assay: MTT assay of cellular proliferation; format: cell-based; conditions: Homo sapiens, 50% inhibition of cellular proliferation
Method in brief: as §1

SW480 [23] = assay: MECP in cancer cell line; format: cell-based; conditions: Homo sapiens
Method in brief: as §2

A549 [24] = assay: MECP in cancer cell line; format: cell-based; conditions: Homo sapiens
Method in brief: as §2

NCI-N87 [25] = assay: MECP in cancer cell line; format: cell-based; conditions: Homo sapiens
Method in brief: as §2

[26] = read-out: Min. Effective conc. for Polyploidy (≥5%)

Row | Compound | pEC50 (MDA-MB-231 [3]) | pEC50 (HCT116 [4]) | pEC50 (T2 HCC [5]) | pEC50 (Hela [7]) | pEC50 (NCI-H23 [8]) | minimal effective concentration (MDA-MB-231 [11]) [µM] | minimal effective concentration (HCT116 [12]) [µM] | minimal effective concentration (T2 HCC [13]) [µM] | minimal effective concentration (Hela [15]) [µM] | minimal effective concentration (RPEMYC^H2B-GFP cells; [26]) [µM] | minimal effective concentration (RPEMYC^H2B-GFP cells; read-out: Mitotic Arrest (≥5%)) [µM] | pIC50 (RPEMYC^H2B-GFP cells) | minimal effective concentration (NCI-H23 [16]) [µM] | tumor growth (percentage change of tumor volumes) [18] | tumor growth (percentage change of tumor volumes) [19] | pEC50 (SW480 [20]) | pEC50 (A549 [21]) | pEC50 (NCI-N87 [22]) | minimal effective concentration (SW480 [23]) [µM] | minimal effective concentration (A549 [24]) [µM] | further results
1 | COC(=O)c1cc(Oc2ccnc3ccccc23)cc(C(=O)OC)c1 [Compound 15, dimethyl 5-(quinolin-4-yloxy)isophthalate] | 6.00 to 9.00 | 6.00 to 9.00 | 6.00 to 9.00 | 6.00 to 9.00 | 6.00 to 9.00 | 0.001 to 1 | 0.001 to 1 | 0.001 to 1 | 0.001 to 1 | 0.001 to 1 | 0.001 to 1 | 6.00 to 9.00 | 0.001 to 1 | – | – | – | – | – | – | – | pEC50 (NCI-H596 [1]): 5.00 to 6.00; pEC50 (T98G [2]): 5.00 to 6.00; pEC50 (NCI-H460 [6]): < 4.52; minimal effective concentration (NCI-H596 [9]): 0.001 to 1 µM; minimal effective concentration (T98G [10]): 1 to 10 µM; minimal effective concentration (NCI-H460 [14]): 1 to 10 µM; Anchorage-independent Growth of Human Cancer Cells in 3D Culture (Human Cancer Cells): Suppress the Anchorage-independent Growth; anchorage-independent growth in soft agar [17]: effectively suppressed the anchorage-independent growth
2 | COc1cc(Oc2ccnc3ccsc23)cc(-n2cccn2)c1 [Compound 40, 7-(3-methoxy-5-(1H-pyrazol-1-yl)phenoxy)thieno[3,2-b]pyridine] | 6.00 to 9.00 | 6.00 to 9.00 | 6.00 to 9.00 | 6.00 to 9.00 | 6.00 to 9.00 | 0.001 to 1 | 0.001 to 1 | 0.001 to 1 | 0.001 to 1 | 0.001 to 1 | 0.001 to 1 | 6.00 to 9.00 | 0.001 to 1 | suppress the growth; also recorded: suppressing the tumor growth | suppress the growth; also recorded: suppressing the tumor growth | 6.00 to 9.00 | 6.00 to 9.00 | 6.00 to 9.00 | 0.001 to 1 | 0.001 to 1 | minimal effective concentration (NCI-N87 [25]): 0.001 to 1 µM
3 | COc1cc(NC(C)=O)cc(Oc2ccnc3ccsc23)c1 [Compound 43, N-(3-methoxy-5-(thieno[3,2-b]pyridin-7-yloxy)phenyl)acetamide] | 6.00 to 9.00 | 6.00 to 9.00 | 6.00 to 9.00 | 6.00 to 9.00 | 6.00 to 9.00 | 0.001 to 1 | 0.001 to 1 | 0.001 to 1 | 0.001 to 1 | 0.001 to 1 | 0.001 to 1 | 6.00 to 9.00 | 0.001 to 1 | suppress the growth; also recorded: suppressing the tumor growth and even eliciting tumor regression | suppress the growth; also recorded: suppressing the tumor growth and even eliciting tumor regression | 6.00 to 9.00 | 6.00 to 9.00 | 6.00 to 9.00 | 0.001 to 1 | 0.001 to 1 | minimal effective concentration (NCI-N87 [25]): 0.001 to 1 µM
4 | COC(=O)c1cc(OC)cc(Oc2ccnc3ccccc23)c1 [Compound 8, Methyl 3-methoxy-5-(quinolin-4-yloxy)benzoate] | 6.00 to 9.00 | 6.00 to 9.00 | 6.00 to 9.00 | 6.00 to 9.00 | 6.00 to 9.00 | 0.001 to 1 | 0.001 to 1 | 0.001 to 1 | 0.001 to 1 | 0.001 to 1 | 0.001 to 1 | 6.00 to 9.00 | 0.001 to 1 | – | – | – | – | – | – | – | pEC50 (NCI-H596 [1]): 5.00 to 6.00; pEC50 (T98G [2]): 5.00 to 6.00; pEC50 (NCI-H460 [6]): < 4.52; minimal effective concentration (NCI-H596 [9]): 0.001 to 1 µM; minimal effective concentration (T98G [10]): 1 to 10 µM; minimal effective concentration (NCI-H460 [14]): 1 to 10 µM; Anchorage-independent Growth of Human Cancer Cells in 3D Culture (Human Cancer Cells): Suppress the Anchorage-independent Growth; anchorage-independent growth in soft agar [17]: effectively suppressed the anchorage-independent growth
5 | COc1cc(Oc2ccnc3ccc(Br)cc23)cc(-n2cccn2)c1 [Compound 21, 6-bromo-4-(3-methoxy-5-(1H-pyrazol-1-yl)phenoxy)quinoline] | 6.00 to 9.00 | 6.00 to 9.00 | 6.00 to 9.00 | 6.00 to 9.00 | 6.00 to 9.00 | 0.001 to 1 | 0.001 to 1 | 0.001 to 1 | 0.001 to 1 | 0.001 to 1 | 0.001 to 1 | 6.00 to 9.00 | 0.001 to 1 | suppress the growth; also recorded: suppressing the tumor growth | suppress the growth; also recorded: suppressing the tumor growth | 6.00 to 9.00 | 6.00 to 9.00 | 6.00 to 9.00 | 0.001 to 1 | 0.001 to 1 | minimal effective concentration (NCI-N87 [25]): 0.001 to 1 µM
6 | COc1cc(Oc2ccnc3cc(OC)c(OC)cc23)cc(-n2cccn2)c1 [Compound 26, 6,7-dimethoxy-4-(3-methoxy-5-(1H-pyrazol-1-yl)phenoxy)quinoline] | 6.00 to 9.00 | 6.00 to 9.00 | 6.00 to 9.00 | 6.00 to 9.00 | 6.00 to 9.00 | 0.001 to 1 | 0.001 to 1 | 0.001 to 1 | 0.001 to 1 | 0.001 to 1 | 0.001 to 1 | 6.00 to 9.00 | 0.001 to 1 | suppress the growth; also recorded: suppressing the tumor growth | suppress the growth; also recorded: suppressing the tumor growth | 6.00 to 9.00 | 6.00 to 9.00 | 6.00 to 9.00 | 0.001 to 1 | 0.001 to 1 | minimal effective concentration (NCI-N87 [25]): 0.001 to 1 µM
